The source of these data is patent US7868135B2, “Compositions of lipopeptide antibiotic derivatives and methods of use thereof” (priority 2003, dated 2011).

The MIC is the lowest concentration that inhibits growth of the organism.

Starred links: 1 amine or outer side, 2 acyl side, 3 side chain; linkers in the order of their positions; H or OH if unused. Positions of bridges follow the written chain, without caps; N, C: chain ends. Non-standard residues stand in square brackets, D forms with d. Residues, ends and D or L forms follow the SMILES beside them. ξ: configuration not given here. *: point of attachment. Benzoyl(4-OC10H21) = CCCCCCCCCCOc1ccc(C(=O)*)cc1; ξAbu(βξ-NH2) = CC(N[*:3])C(N[*:1])C(=O)[*:2]; Phac(3-amino) = O=C(Cc1cccc(N[*:1])c1)[*:2]; Pentadecanoyl = CCCCCCCCCCCCCCC(=O)*; X8 = O=C(/C=C/c1ccc(N[*:1])cc1)[*:2]; Bta = N[C@@H](Cc1csc2ccccc12)C(=O)O; ξAsp(βξ-Me) = CC(C(=O)O)C(N)C(=O)O; X2 = O=C(CCc1ccc(N[*:1])cc1)[*:2]; X1 = O=C(Cc1ccc(N[*:1])cc1)[*:2]; X13 = O=C(CCCCCCCCCCOc1ccccc1)*; ξAbu(3ξ-NH2) = CC(N)C(N)C(=O)O; Lauroyl = CCCCCCCCCCCC(=O)*; Decanoyl = CCCCCCCCCC(=O)*; 4Abz = Nc1ccc(C(=O)O)cc1; Pip = O=C(O)[CH]1CCCCN1; ξD = NC(CC(=O)O)C(=O)O; ξPip = O=C(O)C1CCCCN1; ξV = CC(C)C(N)C(=O)O; ξP = O=C(O)C1CCCN1; OtBu = CC(C)(C)O*

One test has as its system Staphylococcus aureus (MSSA). The following applies: 24 h. In short, it runs like this:
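Broth microdilution MIC per NCCLS M7-A6 with doubling serial dilutions, in cation-adjusted Mueller-Hinton broth supplemented with 0.625 mM calcium.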
For `CCCCCCCCCCOc1ccc(C(=O)NCC(=O)NC(CC(=O)O)C(=O)NC2C(=O)N3CCCCC3C(=O)NC(C(C)C(=O)O)C(=O)NC(CC(=O)O)C(=O)NCC(=O)NC(CC(=O)O)C(=O)NCC(=O)NC(C(C)N)C(=O)NC(C(C)C)C(=O)N3CCCC3C(=O)NC2C)cc1` (stereo not drawn) [Compound 110, CH3—(CH2)9—O-p-Ph-C(═O)-Gly-Amphomycin] ({Benzoyl(4-OC10H21)}-GD[ξAbu(βξ-NH2)][Pip][ξAsp(βξ-Me)]DGDG[ξAbu(3ξ-NH2)]VP; lactam 3-C; configuration not given here), the MIC worked out at 0.5 µg/mL.
Turning to `CCCCCCCCCCCC(=O)Nc1cccc(CC(=O)NC(CC(=O)O)C(=O)NC2C(=O)N3CCCCC3C(=O)NC(C(C)C(=O)O)C(=O)NC(CC(=O)O)C(=O)NCC(=O)NC(CC(=O)O)C(=O)NCC(=O)NC(C(C)N)C(=O)NC(C(C)C)C(=O)N3CCCC3C(=O)NC2C)c1` (stereo not drawn) [Compound 111, C12-(M-Apa)-Amphomycin] (Lauroyl-[Phac(3-amino)]D[ξAbu(βξ-NH2)][Pip][ξAsp(βξ-Me)]DGDG[ξAbu(3ξ-NH2)]VP; lactam 3-C; configuration not given here), the MIC was 0.5 to 1 µg/mL.
Still for that read-out and setting: then `CCCCCCCCCCCCCCC(=O)N[C@@H](CC(=O)OC(C)(C)C)C(=O)NC(CC(=O)O)C(=O)NC1C(=O)N2CCCCC2C(=O)NC(C(C)C(=O)O)C(=O)NC(CC(=O)O)C(=O)NCC(=O)NC(CC(=O)O)C(=O)NCC(=O)NC(C(C)N)C(=O)NC(C(C)C)C(=O)N2CCCC2C(=O)NC1C` (stereo partly drawn) [Compound 112, C15-[Asp-(OtBu)]-Amphomycin] (Pentadecanoyl-D(OtBu)[ξD][ξAbu(βξ-NH2)][ξPip][ξAsp(βξ-Me)][ξD]G[ξD]G[ξAbu(3ξ-NH2)][ξV][ξP]; lactam 3-C), with 0.5 µg/mL; and `CCCCCCCCCC(=O)Nc1cccc(CC(=O)NC(CC(=O)O)C(=O)NC2C(=O)N3CCCCC3C(=O)NC(C(C)C(=O)O)C(=O)NC(CC(=O)O)C(=O)NCC(=O)NC(CC(=O)O)C(=O)NCC(=O)NC(C(C)N)C(=O)NC(C(C)C)C(=O)N3CCCC3C(=O)NC2C)c1` (stereo not drawn) [Compound 113, C10-(M-Apa)-Amphomycin] (Decanoyl-[Phac(3-amino)]D[ξAbu(βξ-NH2)][Pip][ξAsp(βξ-Me)]DGDG[ξAbu(3ξ-NH2)]VP; lactam 3-C; configuration not given here), with 16 µg/mL.
Same read-out and setting: then `CCCCCCCCCCCCCCC(=O)N[C@H](C(=O)NC(CC(=O)O)C(=O)NC1C(=O)N2CCCCC2C(=O)NC(C(C)C(=O)O)C(=O)NC(CC(=O)O)C(=O)NCC(=O)NC(CC(=O)O)C(=O)NCC(=O)NC(C(C)N)C(=O)NC(C(C)C)C(=O)N2CCCC2C(=O)NC1C)c1ccccc1` (some centres unmarked) [Compound 115, C15-Phg-Amphomycin], with 2 µg/mL.
Same read-out and setting: for `CCCCCCCCCCCCCCC(=O)N[C@H](Cc1ccccc1)C(=O)NC(CC(=O)O)C(=O)NC1C(=O)N2CCCCC2C(=O)NC(C(C)C(=O)O)C(=O)NC(CC(=O)O)C(=O)NCC(=O)NC(CC(=O)O)C(=O)NCC(=O)NC(C(C)N)C(=O)NC(C(C)C)C(=O)N2CCCC2C(=O)NC1C` (stereo partly drawn) [Compound 116, C15-(D-Phe)-Amphomycin] (Pentadecanoyl-[dF][ξD][ξAbu(βξ-NH2)][ξPip][ξAsp(βξ-Me)][ξD]G[ξD]G[ξAbu(3ξ-NH2)][ξV][ξP]; lactam 3-C) the value was 1 µg/mL; for `CC(C)C1NC(=O)C(C(C)N)NC(=O)CNC(=O)C(CC(=O)O)NC(=O)CNC(=O)C(CC(=O)O)NC(=O)C(C(C)C(=O)O)NC(=O)C2CCCCN2C(=O)C(NC(=O)C(CC(=O)O)NC(=O)CNC(=O)CCCCCCCCCCOc2ccccc2)C(C)NC(=O)C2CCCN2C1=O` (stereo not drawn) [Compound 117, Ph-O—(CH2)11-Gly-Amphomycin] (X13-GD[ξAbu(βξ-NH2)][Pip][ξAsp(βξ-Me)]DGDG[ξAbu(3ξ-NH2)]VP; lactam 3-C; configuration not given here; N-terminus assumed), 8 µg/mL; for `CCCCCCCCCC(=O)N[C@@H](Cc1csc2ccccc12)C(=O)NC(CC(=O)O)C(=O)NC1C(=O)N2CCCCC2C(=O)NC(C(C)C(=O)O)C(=O)NC(CC(=O)O)C(=O)NCC(=O)NC(CC(=O)O)C(=O)NCC(=O)NC(C(C)N)C(=O)NC(C(C)C)C(=O)N2CCCC2C(=O)NC1C` (stereo partly drawn) [Compound 118, C10-(L-BBTA)-Amphomycin] (Decanoyl-[Bta][ξD][ξAbu(βξ-NH2)][ξPip][ξAsp(βξ-Me)][ξD]G[ξD]G[ξAbu(3ξ-NH2)][ξV][ξP]; lactam 3-C), 2 µg/mL.
For the molecule `CCCCCCCCCCCC(=O)Nc1ccc(/C=C/C(=O)NC(CC(=O)O)C(=O)NC2C(=O)N3CCCCC3C(=O)NC(C(C)C(=O)O)C(=O)NC(CC(=O)O)C(=O)NCC(=O)NC(CC(=O)O)C(=O)NCC(=O)NC(C(C)N)C(=O)NC(C(C)C)C(=O)N3CCCC3C(=O)NC2C)cc1` (stereo not drawn) [Compound 120, C12-(p-Amino-Trans-Cinnamyl)-Amphomycin] (Lauroyl-[X8]D[ξAbu(βξ-NH2)][Pip][ξAsp(βξ-Me)]DGDG[ξAbu(3ξ-NH2)]VP; lactam 3-C; configuration not given here), the MIC amounted to 0.5 µg/mL.
Regarding `CCCCCCCCCC(=O)Nc1ccc(CC(=O)NC(CC(=O)O)C(=O)NC2C(=O)N3CCCCC3C(=O)NC(C(C)C(=O)O)C(=O)NC(CC(=O)O)C(=O)NCC(=O)NC(CC(=O)O)C(=O)NCC(=O)NC(C(C)N)C(=O)NC(C(C)C)C(=O)N3CCCC3C(=O)NC2C)cc1` (stereo not drawn) [Compound 122, CH3—(CH2)9-(p-Apa)-Amphomycin] (Decanoyl-[X1]D[ξAbu(βξ-NH2)][Pip][ξAsp(βξ-Me)]DGDG[ξAbu(3ξ-NH2)]VP; lactam 3-C; configuration not given here; N-terminus assumed), the MIC was 8 µg/mL.
On the same count and under the same terms, then `CCCCCCCCCCCC(=O)Nc1ccc(C(=O)NCC(=O)NC(CC(=O)O)C(=O)NC2C(=O)N3CCCCC3C(=O)NC(C(C)C(=O)O)C(=O)NC(CC(=O)O)C(=O)NCC(=O)NC(CC(=O)O)C(=O)NCC(=O)NC(C(C)N)C(=O)NC(C(C)C)C(=O)N3CCCC3C(=O)NC2C)cc1` (stereo not drawn) [Compound 123, C12-PABA-Gly-Amphomycin] ({Lauroyl-4Abz}-GD[ξAbu(βξ-NH2)][Pip][ξAsp(βξ-Me)]DGDG[ξAbu(3ξ-NH2)]VP; lactam 3-C; configuration not given here), with 1 µg/mL.
Still for that read-out and setting: for `CCCCCCCCCCCCCCC(=O)NC(CC(=O)O)C(=O)NC1C(=O)N2CCCCC2C(=O)NC(C(C)C(=O)O)C(=O)NC(CC(=O)O)C(=O)NCC(=O)NC(CC(=O)O)C(=O)NCC(=O)NC(C(C)NC(=O)CN(C)C(=O)[C@@H](N)CCCN)C(=O)NC(C(C)C)C(=O)N2CCCC2C(=O)NC1C` (some centres unmarked) [Compound 144, C15-Amphomycin-9-Sar-Orn] the value was 4 µg/mL.

The test is the same for the next values; noted with them: S. aureus (MSSA), CAMHB supplemented with 0.625 mM calcium, 24 hours at about 37° C.; a range = compound tested multiple times.
Consider `CCCCCCCCCCCC(=O)Nc1ccc(CCC(=O)Nc2ccc(CCC(=O)NC(CC(=O)O)C(=O)NC3C(=O)N4CCCCC4C(=O)NC(C(C)C(=O)O)C(=O)NC(CC(=O)O)C(=O)NCC(=O)NC(CC(=O)O)C(=O)NCC(=O)NC(C(C)N)C(=O)NC(C(C)C)C(=O)N4CCCC4C(=O)NC3C)cc2)cc1` (stereo not drawn) [Compound 109, C12-(p-Aminophenylpropanoyl)2-Amphomycin] (Lauroyl-[X2][X2]D[ξAbu(βξ-NH2)][Pip][ξAsp(βξ-Me)]DGDG[ξAbu(3ξ-NH2)]VP; lactam 4-C; configuration not given here), for which the MIC turned out to be 2 µg/mL.
Same read-out and setting: for `CCCCCCCCCCCCCC(=O)NC(CC(=O)O)C(=O)NC1C(=O)N2CCCCC2C(=O)NC(C(C)C(=O)O)C(=O)NC(CC(=O)O)C(=O)NCC(=O)NC(CC(=O)O)C(=O)NCC(=O)NC(C(C)NC(=O)CNC(=O)[C@@H](N)CCCCN)C(=O)NC(C(C)C)C(=O)N2CCCC2C(=O)NC1C` (some centres unmarked) [Compound 125, C14-Amphomycin-9-Gly-Lys] the value was 125/1-2 μg/mL.
As to `CCCCCCCCCCCCCC(=O)NC(CC(=O)O)C(=O)NC1C(=O)N2CCCCC2C(=O)NC(C(C)C(=O)O)C(=O)NC(CC(=O)O)C(=O)NCC(=O)NC(CC(=O)O)C(=O)NCC(=O)NC(C(C)NC(=O)[C@@H](N)CCCN)C(=O)NC(C(C)C)C(=O)N2CCCC2C(=O)NC1C` (some centres unmarked) [Compound 127, C14-Amphomycin-9-Orn], the MIC was 127/4 μg/mL.
The same measure, in the same setting: then `CCCCCCCCCCCCC(=O)NC(CC(=O)O)C(=O)NC1C(=O)N2CCCCC2C(=O)NC(C(C)C(=O)O)C(=O)NC(CC(=O)O)C(=O)NCC(=O)NC(CC(=O)O)C(=O)NCC(=O)NC(C(C)NC(=O)[C@@H](N)CCCN)C(=O)NC(C(C)C)C(=O)N2CCCC2C(=O)NC1C` (some centres unmarked) [Compound 134, C13-Amphomycin-9-Orn], with 134/32 μg/mL; and `CCCCCCCCCCCCC(=O)NC(CC(=O)O)C(=O)NC1C(=O)N2CCCCC2C(=O)NC(C(C)C(=O)O)C(=O)NC(CC(=O)O)C(=O)NCC(=O)NC(CC(=O)O)C(=O)NCC(=O)NC(C(C)NC(=O)[C@@H](N)CN)C(=O)NC(C(C)C)C(=O)N2CCCC2C(=O)NC1C` (some centres unmarked) [Compound 136, C13-Amphomycin-9-Dap], with 136/4 μg/mL.
The same measure, in the same setting: then `CCCCCCCCCCCCCC(=O)NC(CC(=O)O)C(=O)NC1C(=O)N2CCCCC2C(=O)NC(C(C)C(=O)O)C(=O)NC(CC(=O)O)C(=O)NCC(=O)NC(CC(=O)O)C(=O)NCC(=O)NC(C(C)NC(=O)[C@@H](N)CN)C(=O)NC(C(C)C)C(=O)N2CCCC2C(=O)NC1C` (some centres unmarked) [Compound 140, C14-Amphomycin-9-Dap], with 140/32 μg/mL; and `CCCCCCCCCCCCCCCC(=O)NC(CC(=O)O)C(=O)NC1C(=O)N2CCCCC2C(=O)NC(C(C)C(=O)O)C(=O)NC(CC(=O)O)C(=O)NCC(=O)NC(CC(=O)O)C(=O)NCC(=O)NC(C(C)NC(=O)CNC(=O)[C@@H](N)CCCCN)C(=O)NC(C(C)C)C(=O)N2CCCC2C(=O)NC1C` (some centres unmarked) [Compound 141, C16-Amphomycin-9-Gly-Lys], with 141/2 μg/mL; and `CCCCCCCCCCCC(=O)NC(CC(=O)O)C(=O)NC1C(=O)N2CCCCC2C(=O)NC(C(C)C(=O)O)C(=O)NC(CC(=O)O)C(=O)NCC(=O)NC(CC(=O)O)C(=O)NCC(=O)NC(C(C)NC(=O)CNC(=O)[C@@H](N)CCCCN)C(=O)NC(C(C)C)C(=O)N2CCCC2C(=O)NC1C` (some centres unmarked) [Compound 143, C12-Amphomycin-9-Gly-Lys], with 143/2-4 μg/mL.
